Results: patent publication US20210330738A1, “ANTIMICROBIAL, BACTERIOPHAGE-DERIVED POLYPEPTIDES AND THEIR USE AGAINST GRAM-NEGATIVE BACTERIA” (CONTRAFECT CORPORATION, priority 2018, published 2021)

Assays:
[1] = tested on: P. aeruginosa strain PAO1; experiment: MIC in Mueller-Hinton broth supplemented with 50% human plasma or human serum; assay type: cell-based, Pseudomonas aeruginosa; conditions: for Minimal inhibitory concentration, Human Plasma: Mueller-Hinton broth supplemented with 50% human plasma; for Minimal inhibitory concentration, Human Serum: Mueller-Hinton broth supplemented with 50% human serum
[2] = tested on: mature biofilms formed by P. aeruginosa strain ATCC 17647; experiment: Minimal Biofilm Eradicating Concentration (MBEC), Calgary Biofilm Device, crystal violet; assay type: cell-based, Pseudomonas aeruginosa; conditions: P. aeruginosa ATCC 17647 mature biofilm, >95% biofilm biomass removed

PGLa
Minimal inhibitory concentration, Human Plasma [1]: >64 µg/mL
Minimal inhibitory concentration, Human Serum [1]: >64 µg/mL

LL-37
Minimal inhibitory concentration, Human Plasma [1]: >64 µg/mL
Minimal inhibitory concentration, Human Serum [1]: >64 µg/mL

Protegrin 1
Minimal inhibitory concentration, Human Plasma [1]: 1 µg/mL
Minimal inhibitory concentration, Human Serum [1]: 4 µg/mL

T4 lysozyme [Peptide T4LYZ]
MBEC [2]: >64 µg/mL
MBEC ([2]; listed as T4 lysozyme): > 64 µg/mL
